The target of one assay is T1, NKTR (Homo sapiens, UniProt P30414).
T1 construct: NKTR (UniProtKB Entry P30414: residues 7–179); host or cells: E. coli BL21(DE3)
T1 sequence (P30414 7-179): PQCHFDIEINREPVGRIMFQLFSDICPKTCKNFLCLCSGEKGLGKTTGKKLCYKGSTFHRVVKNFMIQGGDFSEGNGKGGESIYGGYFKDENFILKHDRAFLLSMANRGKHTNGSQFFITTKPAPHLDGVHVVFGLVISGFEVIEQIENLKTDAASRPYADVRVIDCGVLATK
Description: Chymotrypsin coupled prolyl-isomerase assay. The assay is classed as biochemical.

The next assay concerns the target T2, CypB (Homo sapiens, UniProt P23284).
T2 construct: PPIB (UniProtKB Entry P23284: residues 34–216); His6 with TEV site (2BT vector leader) (N); made in house; host or cells: E. coli BL21(DE3)
Nature of the assay: biochemical. How it is done: (§1) Adapting a previously described protocol, with an Agilent Bravo Velocity 11 with a 384ST head, 90 µL assay buffer (25 mM HEPES pH 7.3, 100 mM NaCl, 0.01% Triton X-100) containing 5.28 nM cyclophilin was added into a flat, clear-bottom, black 384-well plate pre-chilled in a Corning CoolBox at 2–3 °C. Five microliters of compound pre-dissolved in 5% DMSO/assay buffer was then added to appropriate wells and incubated at 2–3 °C for 5 min. Five microliters of 0.5 mM α-chymotrypsin from bovine pancreas (Type II, lyophilized powder, Millipore-Sigma) in 20% 1 mM HCl/Assay Buffer was then added to each well and incubated at 2–3 °C for 5 min. The plate was then quickly transferred to a FLIPR Tetra High-Throughput Cellular Screening System (Molecular Devices). Using the internal liquid handling system of the FLIPR, 1 µL 0.5 mM Suc-AAPF-AMC (Chymotrypsin Substrate II, Millipore-Sigma) dissolved in 0.55 M LiCl/2,2,2-trifluoroethanol was added to each well, which was then mixed for 5 s, followed by immediate fluorescence measurements every 1 s for 330 s using a 360–380 nm excitation LED module and a 400–460 nm emission filter. Final concentrations of the plate include 5 nM cyclophilin, 0.25% DMSO, 25 µM α-chymotrypsin, 5 µM Suc-AAPF-AMC. Raw fluorescence data was analyzed by non-linear regression analysis with Prism v.9 by fitting one-phase association curves to each well. […] Rate constants calculated for each well (s^−1) were then normalized to substrate only (no prolyl-isomerase) and enzyme + substrate only controls. IC50 values were calculated as the value at which 50% inhibition was achieved on the non-linear regression fitted curve of each compound.

In another assay the target is T3, CypH (Homo sapiens, UniProt O43447).
T3 construct: PPIH (UniProtKB Entry O43447: residues 1–177); His6 with TEV site (2BT vector leader) (N); made in house; host or cells: E. coli BL21(DE3)
T3 sequence (O43447 whole entry, the tested form may be a part): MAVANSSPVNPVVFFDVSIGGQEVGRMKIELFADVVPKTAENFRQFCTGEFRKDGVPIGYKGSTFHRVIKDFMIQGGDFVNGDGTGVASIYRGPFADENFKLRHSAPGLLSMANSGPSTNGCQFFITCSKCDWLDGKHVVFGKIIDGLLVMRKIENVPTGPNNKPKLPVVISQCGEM
Nature of the assay: Chymotrypsin coupled prolyl-isomerase assay. The assay is classed as biochemical. How it is done: as §1

The target in another assay is T4, CypC (Homo sapiens, UniProt P45877).
T4 construct: PPIC (UniProtKB Entry P45877: residues 24–212); host or cells: E. coli BL21(DE3)
T4 sequence (P45877 24-212): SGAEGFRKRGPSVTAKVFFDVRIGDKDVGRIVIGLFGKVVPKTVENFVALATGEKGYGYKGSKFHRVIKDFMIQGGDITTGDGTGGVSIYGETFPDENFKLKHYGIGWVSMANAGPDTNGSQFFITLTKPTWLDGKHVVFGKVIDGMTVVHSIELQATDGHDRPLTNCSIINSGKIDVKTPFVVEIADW
Description: Chymotrypsin coupled prolyl-isomerase assay. The class given is biochemical. On the procedure:
as §1

The target in the next assay is T5, CypA (Homo sapiens, UniProt P62937).
T5 construct: PPIA (UniProtKB Entry P62937: residues 1–165); made in house; host or cells: E. coli BL21(DE3)
T5 sequence (P62937 whole entry, the tested form may be a part): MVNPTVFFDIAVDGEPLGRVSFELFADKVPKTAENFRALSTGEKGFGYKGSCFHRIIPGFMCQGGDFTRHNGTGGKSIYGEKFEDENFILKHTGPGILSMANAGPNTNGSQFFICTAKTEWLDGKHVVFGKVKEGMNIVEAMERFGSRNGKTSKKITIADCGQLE
Nature of the assay: Chymotrypsin coupled prolyl-isomerase assay. The assay is classed as biochemical. How it is done:
as §1

The next assay addresses T6, CypE (Homo sapiens, UniProt Q9UNP9).
T6 construct: PPIE (UniProtKB Entry Q9UNP9: residues 131–301); host or cells: E. coli BL21(DE3)
Description: Chymotrypsin coupled prolyl-isomerase assay. The following applies: prolyl-isomerase inhibition, 5 nM cyclophilin; read-out: IC50 CypE. The class given is biochemical. On the procedure: as §1

The next assay deals with T7, CypG (Homo sapiens, UniProt Q13427).
T7 construct: PPIG (UniProtKB Entry Q13427: residues 1–179); His6 with thrombin site (pET28a LIC leader) (N); host or cells: E. coli BL21(DE3)
T7 sequence (Q13427 1-179): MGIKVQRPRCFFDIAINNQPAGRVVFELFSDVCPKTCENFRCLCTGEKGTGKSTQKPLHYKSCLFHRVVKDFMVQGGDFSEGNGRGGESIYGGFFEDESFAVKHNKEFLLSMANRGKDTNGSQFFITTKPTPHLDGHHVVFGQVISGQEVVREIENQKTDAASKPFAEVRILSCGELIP
Description: Chymotrypsin coupled prolyl-isomerase assay. The note with it: wild-type CypG; read-out: Wild-Type Cyclophilin Prolyl Isomerase Inhibition IC50 Values, CypG. The assay is classed as biochemical. On the procedure: as §1

Where “and” joins values, the source holds several entries; their conditions need not be identical. Identical values can stand only once. Like-named read-outs stand apart in the source and are kept apart here. Where only a bound is given, the exact number is not on record here.

The source of these data is publication PMC9596378, “Discovery and molecular basis of subtype-selective cyclophilin inhibitors” (Nature Chemical Biology, 2022).

T6 sequence (Q9UNP9 131-301): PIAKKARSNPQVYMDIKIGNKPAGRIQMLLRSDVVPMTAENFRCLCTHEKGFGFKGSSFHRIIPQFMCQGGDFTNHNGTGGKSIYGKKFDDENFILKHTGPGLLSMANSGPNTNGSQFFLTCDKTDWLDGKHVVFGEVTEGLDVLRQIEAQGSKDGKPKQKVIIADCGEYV
T2 sequence (P23284 34-216): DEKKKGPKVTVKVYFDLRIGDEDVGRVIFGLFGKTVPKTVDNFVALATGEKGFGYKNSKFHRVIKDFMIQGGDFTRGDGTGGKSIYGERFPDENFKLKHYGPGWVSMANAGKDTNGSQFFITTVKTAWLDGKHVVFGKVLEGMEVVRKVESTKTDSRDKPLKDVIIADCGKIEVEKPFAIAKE

By IC50 is commonly meant the concentration needed to halve the response being measured. Consider `NC(=O)[C@@H]1CCNC(=O)/C=C/C(=O)N2CCC[C@](Cc3ccccc3)(C2)C(=O)N[C@@H](Cc2ccc(-c3cccc(B(O)O)c3)cc2)C(=O)NCc2ccccc2CC(=O)N1` [Compound C6A], for which the IC50 on NKTR (prolyl-isomerase inhibition, 5 nM cyclophilin, read-out: IC50 NKTR) was greater than 10 µM; on NKTR (wild-type NKTR, read-out: Wild-Type Cyclophilin Prolyl Isomerase Inhibition IC50 Values, NKTR), 5 µM; at CypB (prolyl-isomerase inhibition, 5 nM cyclophilin, read-out: IC50 CypB), roughly 8 µM; at CypB (wild-type CypB, read-out: Wild-Type Cyclophilin Prolyl Isomerase Inhibition IC50 Values, CypB), 8 µM; at CypH (prolyl-isomerase inhibition, 5 nM cyclophilin, read-out: IC50 CypH) it was roughly 4 µM; on CypH (wild-type CypH, read-out: Wild-Type Cyclophilin Prolyl Isomerase Inhibition IC50 Values, CypH), 4 µM. In addition, the IC50 is roughly 5 µM on CypC (prolyl-isomerase inhibition, 5 nM cyclophilin, read-out: IC50 CypC); 5 µM at CypC (wild-type CypC, read-out: Wild-Type Cyclophilin Prolyl Isomerase Inhibition IC50 Values, CypC); roughly 6 µM on CypA (prolyl-isomerase inhibition, 5 nM cyclophilin, read-out: IC50 CypA); 6 µM at CypA (wild-type CypA, read-out: Wild-Type Cyclophilin Prolyl Isomerase Inhibition IC50 Values, CypA); ~4 µM and 4 µM at CypE; 1.3 µM at CypG.
